Format in all cases: cell-based, murine and human
What all share (conditions): GAL4-PPAR LBD chimera

In experiment [1] the target is T1, PPAR-alpha (UniProt Q07869).
T1 sequence (Q07869 1-468): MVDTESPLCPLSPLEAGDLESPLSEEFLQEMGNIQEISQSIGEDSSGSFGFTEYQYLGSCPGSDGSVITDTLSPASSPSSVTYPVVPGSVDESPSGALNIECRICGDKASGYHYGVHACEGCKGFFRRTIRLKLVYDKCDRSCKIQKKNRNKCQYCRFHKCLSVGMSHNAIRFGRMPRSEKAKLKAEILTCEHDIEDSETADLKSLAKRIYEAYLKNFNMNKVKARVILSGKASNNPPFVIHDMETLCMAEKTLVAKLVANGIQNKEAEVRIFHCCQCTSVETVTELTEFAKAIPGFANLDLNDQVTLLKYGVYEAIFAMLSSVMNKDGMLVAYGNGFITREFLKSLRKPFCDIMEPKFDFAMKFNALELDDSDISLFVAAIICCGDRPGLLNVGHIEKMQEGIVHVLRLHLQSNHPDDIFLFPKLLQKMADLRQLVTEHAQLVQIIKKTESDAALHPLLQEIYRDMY
In words: PPAR-alpha transactivation assay (GAL4 chimera, luciferase reporter) in CV-1 cells. In short, it runs like this: (§1)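 CV-1 cells transiently transfected with murine or human PPAR-alpha, -gamma or -delta ligand-binding domain fused to GAL4 DNA-binding domain plus a GAL4-site luciferase reporter. After replating in phenol-red-free DME with 5% delipidated calf serum, cells were exposed to compound 20-24 h; luciferase read-out gave EC50.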
Background: A reporter such as luciferase makes a cellular process visible.

Experiment [2] deals with T2, PPAR-delta (UniProt Q03181).
T2 sequence (Q03181 1-441): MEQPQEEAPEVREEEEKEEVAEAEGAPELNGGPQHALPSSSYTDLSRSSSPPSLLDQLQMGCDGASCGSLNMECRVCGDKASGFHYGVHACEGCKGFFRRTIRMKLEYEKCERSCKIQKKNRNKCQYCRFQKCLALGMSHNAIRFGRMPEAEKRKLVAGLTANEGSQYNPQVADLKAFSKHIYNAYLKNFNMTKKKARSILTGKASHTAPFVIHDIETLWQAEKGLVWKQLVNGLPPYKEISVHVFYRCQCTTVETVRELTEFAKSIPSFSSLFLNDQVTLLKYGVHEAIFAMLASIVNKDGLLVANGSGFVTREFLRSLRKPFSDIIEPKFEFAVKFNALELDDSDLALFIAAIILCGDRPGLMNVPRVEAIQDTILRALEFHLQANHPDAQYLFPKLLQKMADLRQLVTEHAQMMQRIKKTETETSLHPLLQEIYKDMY
The experiment is described as follows: PPAR-delta transactivation assay (GAL4 chimera, luciferase reporter) in CV-1 cells. In short, it runs like this: as §1

The target in experiment [3] is T3, PPAR-gamma (UniProt P37231).
T3 sequence (P37231 1-505): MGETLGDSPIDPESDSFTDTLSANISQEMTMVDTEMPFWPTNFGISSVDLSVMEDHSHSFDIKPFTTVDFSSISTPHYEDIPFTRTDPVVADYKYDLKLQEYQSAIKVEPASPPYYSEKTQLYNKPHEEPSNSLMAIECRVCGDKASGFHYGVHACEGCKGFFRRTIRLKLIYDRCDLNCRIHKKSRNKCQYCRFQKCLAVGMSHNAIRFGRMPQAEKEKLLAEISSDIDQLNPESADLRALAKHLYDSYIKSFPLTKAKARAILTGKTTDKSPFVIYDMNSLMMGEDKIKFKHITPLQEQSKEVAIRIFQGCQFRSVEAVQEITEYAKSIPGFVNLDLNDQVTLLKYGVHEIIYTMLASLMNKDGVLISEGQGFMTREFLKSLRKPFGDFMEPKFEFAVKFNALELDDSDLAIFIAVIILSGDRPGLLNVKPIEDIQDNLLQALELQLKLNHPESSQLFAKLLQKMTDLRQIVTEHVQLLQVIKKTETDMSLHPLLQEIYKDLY
The experiment is described as follows: PPAR-gamma transactivation assay (GAL4 chimera, luciferase reporter) in CV-1 cells. In short, it runs like this: as §1

In patent US7517884B2 (Kalypsys Inc., priority 1998, dated 2009) one finds EC50 data, which are given here for 21 compounds.

Consider `COC(=O)[C@@H]1CN(S(=O)(=O)c2ccc3c(c2)C(C(=O)O)CC3)CCN1c1ccc(C(F)(F)F)cn1` (stereo partly drawn) [Example 40, (S)-4-(3-carboxy-indane-5-sulfonyl)-1-(5-trifluoromethyl-pyridin-2-yl)-piperazine-2-carboxylic acid methyl ester], for which the EC50 in experiment [1], in experiment [2] and in experiment [3] was less than 5 µM each time.
Take `O=C(O)Cc1csc2ccc(S(=O)(=O)N3CCN(c4ccc(C(F)(F)F)cc4)CC3)cc12` [Example 41, {5-[4-(4-trifluoromethyl-phenyl)-piperazine-1-sulfonyl]-benzo[b]thiophen-3-yl}-acetic acid]: the concentration giving a half-maximal response (EC50) in experiment [1] was 5 to 100 µM; in experiment [2], less than 5 µM; in experiment [3] it was 5 to 100 µM.
Turning to `CC1CN(c2ccc(C(F)(F)F)cn2)CCN1S(=O)(=O)c1ccc2scc(CC(=O)O)c2c1` (stereo not drawn) [Example 42, {5-[2-methyl-4-(5-trifluoromethyl-pyridin-2-yl)-piperazine-1-sulfonyl]-benzo[b]thiophen-3-yl}-acetic acid], the concentration giving a half-maximal response (EC50) in experiment [1] is 5 to 100 µM; in experiment [2], less than 5 µM; in experiment [3], 5 to 100 µM.
As for `C[C@@H]1CN(c2ccc(C(F)(F)F)cn2)C[C@H](C)N1S(=O)(=O)c1ccc2scc(CC(=O)O)c2c1` [Example 43, {5-[2,6-dimethyl-4-(5-trifluoromethyl-pyridin-2-yl)-piperazine 1-sulfonyl]-benzo[b]thiophen-3-yl}-acetic acid], the results for the EC50 in experiment [1], in experiment [2] and in experiment [3] were greater than 100 µM, less than 5 µM and 5 to 100 µM, respectively.
In the case of `CC1CN(S(=O)(=O)c2ccc3scc(CC(=O)O)c3c2)C(C)CN1c1ccc(C(F)(F)F)cn1` (stereo not drawn) [Example 44, {5-[2,5-dimethyl-4-(5-trifluoromethyl-pyridin-2-yl)-piperazine-1-sulfonyl]-benzo[b]thiophen-3-yl}-acetic acid], the half-maximal effective concentration (EC50) is greater than 100 µM in experiment [1], less than 5 µM in experiment [2] and 5 to 100 µM in experiment [3].
On to `O=C(O)C1CCc2ccc(S(=O)(=O)N3CCN(c4ccc(C(F)(F)F)cc4F)CC3)cc21` (stereo not drawn) [Example 45, 6-[4-(2-fluoro-4-trifluoromethyl-phenyl)-piperazine-1-sulfonyl]-indan-1-carboxylic acid], for which the EC50 in experiment [1], in experiment [2] and in experiment [3] was less than 5 µM in each case.
As for `O=C(O)C1CCc2ccc(S(=O)(=O)N3CCN(c4ccc(Cl)c(Cl)c4)CC3)cc21` (stereo not drawn) [Example 46, 6-[4-(3,4-dichloro-phenyl)-piperazine-1-sulfonyl]-indan-1-carboxylic acid], the EC50 in experiment [1], in experiment [2] and in experiment [3] was less than 5 µM each time.
Regarding `O=C(O)Cc1csc2ccc(S(=O)(=O)N3CCN(c4ccc(C(F)(F)F)cc4F)CC3)cc12` [Example 47, {5-[4-(2-fluoro-4-trifluoromethyl-phenyl)-piperazine-1-sulfonyl]-benzo[b]thiophen-3-yl}-acetic acid], the half-maximal effective concentration (EC50) in experiment [1], in experiment [2] and in experiment [3] was less than 5 µM throughout.
Take `O=C(O)Cc1csc2ccc(S(=O)(=O)N3CCN(c4ccc(C(F)(F)F)c(F)c4)CC3)cc12` [Example 48, {5-[4-(3-fluoro-4-trifluoromethyl-phenyl)-piperazine-1-sulfonyl]-benzo[b]thiophen-3-yl}-acetic acid]: the 50% effective concentration (EC50) in experiment [1], in experiment [2] and in experiment [3] was less than 5 µM throughout.
As for `C[C@@H]1CN(c2ccc(Cl)c(Cl)c2)C[C@H](C)N1S(=O)(=O)c1ccc2c(c1)C(C(=O)O)CC2` (stereo partly drawn) [Example 49, 6-[4-(3,4-dichloro-phenyl)-2,6-cis-dimethyl-piperazine-1-sulfonyl]-indan-1-carboxylic acid], the figures for the EC50 in experiment [1], in experiment [2] and in experiment [3] were less than 5 µM, less than 5 µM and 5 to 100 µM, respectively.
On to `C[C@@H]1CN(c2ccc(C(F)(F)F)c(Cl)c2)C[C@H](C)N1S(=O)(=O)c1ccc2c(c1)C(C(=O)O)CC2` (stereo partly drawn) [Example 50, 6-[4-(3-Chloro-4-trifluoromethyl-phenyl)-cis-2,6-dimethyl-piperazine-1-sulfonyl]-indan-1-carboxylic acid], for which the EC50 is 5 to 100 µM in experiment [1], less than 5 µM in experiment [2] and 5 to 100 µM in experiment [3].
`C[C@@H]1CN(c2ccc(OC(F)(F)F)cc2)C[C@H](C)N1S(=O)(=O)c1ccc2c(c1)C(C(=O)O)CC2` (stereo partly drawn) [Example 51, 6-[2,6-cis-dimethyl-4-(4-trifluoromethoxy-phenyl)-piperazine-1-sulfonyl]-indan-1-carboxylic acid]: the EC50 in experiment [1] was less than 5 µM; in experiment [2], less than 5 µM; in experiment [3], 5 to 100 µM.
`C[C@H]1CN(S(=O)(=O)c2ccc3c(c2)C(C(=O)O)CC3)CCN1c1ccc(Cl)c(Cl)c1` (stereo partly drawn) [Example 52, 6-[4-(3,4-dichloro-phenyl)-3-(S)-methyl-piperazine-1-sulfonyl]-indan-1-carboxylic acid]: the 50% effective concentration (EC50) in experiment [1], in experiment [2] and in experiment [3] was less than 5 µM throughout.
As to `C[C@H]1CN(S(=O)(=O)c2ccc3c(c2)C(C(=O)O)CC3)CCN1c1ccc(OC(F)(F)F)cc1` (stereo partly drawn) [Example 53, 6-[3-(S)-methyl-4-(4-trifluoromethoxy-phenyl)-piperazine-1-sulfonyl]-indan-1-carboxylic acid], the 50% effective concentration (EC50) in experiment [1], in experiment [2] and in experiment [3] was less than 5 µM throughout.
Consider `C[C@H]1CN(S(=O)(=O)c2ccc3c(c2)C(C(=O)O)CC3)CCN1c1ccc(C(F)(F)F)c(F)c1` (stereo partly drawn) [Example 54, 6-[4-(3-Fluoro-4-trifluoromethyl-phenyl)-3-(S)-Methyl-piperazine-1-sulfonyl]-indan-1-carboxylic acid], for which the 50% effective concentration (EC50) in experiment [1], in experiment [2] and in experiment [3] was less than 5 µM throughout.
For `C[C@H]1CN(S(=O)(=O)c2ccc3c(c2)C(C(=O)O)CC3)CCN1c1ccc(C(F)(F)F)cn1` (stereo partly drawn) [Example 55], the EC50 in experiment [1], in experiment [2] and in experiment [3] was less than 5 µM each time.
Regarding `CCC1CN(c2ccc(C(F)(F)F)c(Cl)c2)CCN1S(=O)(=O)c1ccc2c(c1)C(C(=O)O)CC2` (stereo not drawn) [Example 56, 6-[4-(3-chloro-4-trifluoromethyl-phenyl)-2-ethyl-piperazine-1-sulfonyl]-indan-1carboxylic acid], the EC50 in experiment [1], in experiment [2] and in experiment [3] was less than 5 µM in each case.
With `CCC1CN(c2ccc(OC(F)(F)F)cc2)CCN1S(=O)(=O)c1ccc2c(c1)C(C(=O)O)CC2` (stereo not drawn) [Example 57, 6-[2-ethyl-4-(4-trifluoromethoxy-phenyl)-piperazine-1-sulfonyl]-indan-1-carboxylic acid], the EC50 in experiment [1], in experiment [2] and in experiment [3] was less than 5 µM in each case.
In the case of `CCC1CN(c2ccc(Cl)c(Cl)c2)CCN1S(=O)(=O)c1ccc2c(c1)C(C(=O)O)CC2` (stereo not drawn) [Example 58, 6-[4-(3,4-Dichloro-phenyl)-2-ethyl-piperazine-1-sulfonyl]-indan-1-carboxylic acid], the EC50 was less than 5 µM in experiment [1], less than 5 µM in experiment [2] and 5 to 100 µM in experiment [3].
In the case of `CCC1CN(c2ccc(C(F)(F)F)c(F)c2)CCN1S(=O)(=O)c1ccc2c(c1)C(C(=O)O)CC2` (stereo not drawn) [Example 59, 6-[2-Ethyl-4-(3-fluoro-4-trifluoromethyl-phenyl)-piperazine-1-sulfonyl]-indan-1-carboxylic acid], the values for the EC50 in experiment [1], in experiment [2] and in experiment [3] were less than 5 µM, less than 5 µM and 5 to 100 µM, respectively.
On to `CCC1CN(c2ccc(C(F)(F)F)cc2F)CCN1S(=O)(=O)c1ccc2c(c1)C(C(=O)O)CC2` (stereo not drawn) [Example 60, 6-[2-Ethyl-4-(2-fluoro-4-trifluoromethyl-phenyl)-piperazine-1-sulfonyl]-indan-1-carboxylic acid], for which the EC50 in experiment [1] was less than 5 µM; in experiment [2] it was less than 5 µM; in experiment [3] it was 5 to 100 µM.

One may read the EC50 as the concentration that produces a half-maximal response. Low values mean higher potency in that assay, high ones lower potency in that assay.
